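Where inhibition never reached the appropriate level, the endpoint shown equals the highest concentration tested. Otherwise, values were interpolated linearly from a five-concentration, 48-hour dose response in 96-well plates. GI50 marks 50% less growth.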 Active and inactive are the calls of the source. Cut-off read from the data, not from the text of the source: active = GI50 up to about 1.1 µM and inactive = higher.

This is an account of results in ChEMBL document CHEMBL1201862, “PubChem BioAssay data set” (2004).

Assay in all cases: DTP human tumour cell line panel, 48 h
Test [1] concerns A549.
Test [2] deals with COLO 205.
Test [3] concerns EKVX.
Test [4] relates to HCC 2998.
In test [5] the test system is HCT-15.
The test system of test [6] is KM12.
Test [7] has as its system M14.
Test [8] relates to MOLT-4.
For test [9], the system named is NCI-H460.
The test system of test [10] is OVCAR-3.
For test [11], the system named is OVCAR-5.
Test [12] relates to PC-3.
Test [13] has as its system RPMI-8226.
The subject of test [14] is SK-MEL-28.
Test [15] deals with SK-MEL-5.
The test system of test [16] is SK-OV-3.
Test [17] deals with UACC-62.
The test system of test [18] is UO-31.
Test [19] concerns Malme-3M.
Test [20] deals with SR.

A word on the GI50: it is the concentration that inhibits growth by half. Turning to `COc1cc(/C=C/C(=O)N[C@@H]2C(=O)N3[C@@H]2SC(C)(C)[C@@H]3C(=O)O)cc(OC)c1OC`, the GI50 is > 100 µM (inactive) in test [1]; > 100 µM (inactive) in test [2]; > 100 µM (inactive) in [3]; > 100 µM (inactive) in test [4]; > 100 µM in test [5]; > 100 µM (inactive) in test [6]. In addition, the GI50 in test [7], in test [8], in [9], in test [10], in [11] and in test [12] was > 100 µM (inactive) throughout. Besides, the GI50 in [13], in test [14], in test [15], in test [16], in [17] and in test [18] was > 100 µM (inactive) each time.
For `CN/C(=N\N=C1/C(=O)Nc2ccccc21)SCC(=O)c1ccc(Br)cc1`, the GI50 is 5.01 µM (inactive) in test [1]; 41.8 µM (inactive) in test [2]; 22.3 µM (inactive) in test [3]; 5.26 µM (inactive) in test [4]; 17.2 µM in [5]; 7.53 µM (inactive) in test [6]. For the same molecule, the GI50 is 11.7 µM (inactive) in test [7]; 2.86 µM (inactive) in [8]; 13.5 µM (inactive) in [19]; 10.2 µM (inactive) in test [9]; 7.08 µM (inactive) in test [10]; 32 µM (inactive) in test [11]. In addition, the GI50 in [12] was 10.3 µM (inactive); in test [13], 5.58 µM (inactive); in test [14] it was 15 µM (inactive); in test [15] it was 22.9 µM (inactive); in test [16], 9.04 µM (inactive); in test [17], 50.1 µM (inactive). Also, in test [18], the GI50 is 1.04 µM (active).
Turning to `Cc1ccc(/N=C/C=C(\Nc2ccc(C)cc2)c2ccc3ccccc3c2)cc1`, the GI50 in test [1] was 2.66 µM (inactive); in [2] it was 0.571 µM (active); in test [5] it was 0.45 µM; in test [6] it was 0.299 µM (active); in test [7], 1.13 µM (inactive); in [8], 0.237 µM (active). Besides, the concentration for 50% growth inhibition (GI50) in test [19] was 0.238 µM (active); in test [9], 0.489 µM (active); in test [10], 0.364 µM (active); in [11] it was 1.45 µM (inactive); in test [12], 1.02 µM (active); in test [13], 0.536 µM (active). For the same molecule, the GI50 in test [14] was 0.488 µM (active); in test [15], 0.482 µM (active); in test [16], 0.731 µM (active); in [20], 0.39 µM (active); in [17], 0.331 µM (active); in [18] it was 1.07 µM (active).
Regarding `NC(Cc1cc(I)c(Oc2ccc(O)c(I)c2)c(I)c1)C(=O)O` (configuration not stated) [RATHYRONINE], the GI50 in test [1] was > 100 µM (inactive); in [2], > 100 µM (inactive); in test [3] it was > 100 µM (inactive); in [5] it was > 100 µM; in test [6] it was > 100 µM (inactive); in test [7] it was > 100 µM (inactive). In addition, the GI50 in test [19] was 36.8 µM (inactive); in test [10], > 100 µM (inactive); in [11], > 100 µM (inactive); in test [12] it was > 100 µM (inactive); in test [13], 29.9 µM (inactive); in [14], 38.9 µM (inactive). For the same molecule, the GI50 in test [15] is 37.6 µM (inactive); in [16], > 100 µM (inactive); in test [17] it was 64.4 µM (inactive); in test [18], > 100 µM (inactive).
`COc1cc(NS(C)(=O)=O)ccc1N1Cc2c[nH]c3ccc4nc(C)cc1c4c23`: the GI50 is 62.5 µM (inactive) in test [1]; > 100 µM (inactive) in [2]; 67.5 µM (inactive) in test [3]; > 100 µM (inactive) in test [4]; > 100 µM in [5]; > 100 µM (inactive) in [6]. The GI50 was > 100 µM (inactive) in [7]; 48.5 µM (inactive) in [8]; 86.1 µM (inactive) in test [9]; 31 µM (inactive) in test [10]; > 100 µM (inactive) in test [11]; > 100 µM (inactive) in test [12]. Moreover, the GI50 is 31.5 µM (inactive) in [13]; 35.5 µM (inactive) in test [14]; 97.7 µM (inactive) in test [15]; 41.6 µM (inactive) in test [16]; 72.3 µM (inactive) in test [17]; > 100 µM (inactive) in test [18].
In the case of `C[N+](C)(C)C1=NNC2=Nc3ccccc3SC2=C1`, the GI50 in test [1] is 23.9 µM (inactive); in test [2] it was 15 µM (inactive); in [3], 4.92 µM (inactive); in test [4] it was 24.4 µM (inactive); in test [5], 17.5 µM; in test [6], 23.9 µM (inactive). The GI50 in test [7] is 15.7 µM (inactive); in test [8], 13 µM (inactive); in test [19], 19.8 µM (inactive); in test [9], 19 µM (inactive); in test [10], 19.3 µM (inactive); in test [11] it was 17.7 µM (inactive). The GI50 in test [12] is 15.1 µM (inactive); in test [13], 12.9 µM (inactive); in test [14] it was 19.4 µM (inactive); in test [15], 15.1 µM (inactive); in [16], 23.6 µM (inactive); in [17], 17 µM (inactive). In test [18], the GI50 is 15 µM (inactive).
In the case of `CCOC(=O)c1c(N=C(S)Nc2ccc(Cl)cc2)sc2c1CCN(C)C2`, the GI50 in test [1] was > 100 µM (inactive); in test [2] it was > 100 µM (inactive); in test [3], > 100 µM (inactive); in [5], 97.9 µM; in test [6], > 100 µM (inactive); in test [7], > 100 µM (inactive). In addition, the GI50 in test [8] is 41.8 µM (inactive); in test [9] it was 94 µM (inactive); in test [10], 74 µM (inactive); in test [11], > 100 µM (inactive); in test [12], > 100 µM (inactive); in test [13], 33.9 µM (inactive). Besides, the GI50 was > 100 µM (inactive) in test [15], > 100 µM (inactive) in test [17] and 83 µM (inactive) in [18].
In the case of `c1ccc2c(c1)[nH]c1nc3cc(-c4ccc5nc6c(nc5c4)[nH]c4ccccc46)ccc3nc12`, the GI50 in test [1] is > 100 µM (inactive); in [3], > 90.4 µM (inactive); in [4] it was > 79.1 µM (inactive); in test [6], > 100 µM (inactive); in [7] it was > 100 µM (inactive); in [8], 0.166 µM (active). The GI50 is > 100 µM (inactive) in test [19]; > 33.5 µM (inactive) in test [9]; > 100 µM (inactive) in test [11]; > 100 µM (inactive) in [12]; 38 µM (inactive) in [13]; > 100 µM (inactive) in test [14]. In addition, the GI50 in [15] was 54.1 µM (inactive); in [16], > 100 µM (inactive); in [17], > 72.9 µM (inactive); in test [18], > 100 µM (inactive).
For the molecule `CC1(C)OC1COc1c2occc2cc2ccc(=O)oc12` (configuration not stated), the GI50 in test [1] is 67.6 µM (inactive); in [2], > 100 µM (inactive); in test [3] it was 58.6 µM (inactive); in test [4], > 100 µM (inactive); in test [5], > 100 µM; in test [6], > 100 µM (inactive). Further, the GI50 is > 100 µM (inactive) in test [7]; 79.3 µM (inactive) in [8]; > 100 µM (inactive) in test [19]; 40.6 µM (inactive) in test [9]; > 100 µM (inactive) in [10]; > 100 µM (inactive) in test [11]. Further, the GI50 in test [12] was > 100 µM (inactive); in [13], 39.2 µM (inactive); in test [14], > 100 µM (inactive); in test [15], 86.3 µM (inactive); in test [17] it was 33.1 µM (inactive); in [18] it was 72.4 µM (inactive).
With `C=CCCON(C(=O)OC(C)(C)C)C(C)(C)C`, the GI50 in [1] was > 100 µM (inactive); in test [2], > 100 µM (inactive); in [3], > 100 µM (inactive); in test [5], > 100 µM; in [6], > 100 µM (inactive); in test [7], > 100 µM (inactive). The GI50 in test [8], in [19], in test [9], in test [10], in test [11] and in test [12] was > 100 µM (inactive) throughout. Moreover, the GI50 in [13], in test [14], in test [15], in [16], in test [17] and in test [18] was > 100 µM (inactive) each time.
As to `Nc1ccc(Oc2ccc(C34CC5C6CC7(c8ccc(Oc9ccc(N)cc9)cc8)CC5C(C3)C(C7)C6C4)cc2)cc1`, the GI50 in [1] was > 100 µM (inactive); in test [2] it was > 100 µM (inactive); in [3], > 100 µM (inactive); in [5], > 100 µM; in [6], > 100 µM (inactive); in test [7], > 100 µM (inactive). Moreover, the GI50 in test [8], in test [19], in test [9], in [10], in test [11] and in test [12] was > 100 µM (inactive) in each case. Also, the GI50 in [13], in [14], in [15], in test [17] and in [18] was > 100 µM (inactive) throughout.
